Numbering of substitutions follows the chain as printed.
What was measured:
Assay type in all cases: binding
MLKL [1] = target: T1, MLKL (Homo sapiens, UniProt Q8NB16, D107A/E111A); experiment: thermal shift assay with ATP titration
T1 construct: full-length hMLKL(2–471)
T1 sequence (Q8NB16 2-471 D107A/E111A): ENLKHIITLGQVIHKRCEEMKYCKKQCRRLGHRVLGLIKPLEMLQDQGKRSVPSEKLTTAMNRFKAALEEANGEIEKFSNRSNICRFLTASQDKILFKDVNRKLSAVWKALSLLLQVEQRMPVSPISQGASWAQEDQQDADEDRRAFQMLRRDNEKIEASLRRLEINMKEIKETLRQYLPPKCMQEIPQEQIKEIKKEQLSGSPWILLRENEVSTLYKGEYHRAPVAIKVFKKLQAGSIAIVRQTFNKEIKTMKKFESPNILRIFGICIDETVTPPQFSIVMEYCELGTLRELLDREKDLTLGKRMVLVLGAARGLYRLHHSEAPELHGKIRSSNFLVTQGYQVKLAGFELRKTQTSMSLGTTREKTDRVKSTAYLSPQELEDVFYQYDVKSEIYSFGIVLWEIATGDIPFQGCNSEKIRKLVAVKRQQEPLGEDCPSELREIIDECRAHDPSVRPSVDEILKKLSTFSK

MLKL [2] = target: T2, MLKL (Homo sapiens, UniProt Q8NB16); experiment: thermal shift assay (SYPRO Orange) with ATP titration, no divalent cations; supported by AUC
T2 construct: full-length hMLKL(2–471)
T2 sequence (Q8NB16 2-471): T1 sequence (Q8NB16 2-471 D107A/E111A) with A106D, A110E

MLKL [3] = target: T3, MLKL (Homo sapiens, UniProt Q8NB16, G330E); experiment: thermal shift assay with ATP titration
T3 construct: full-length hMLKL(2–471)
T3 sequence (Q8NB16 2-471 G330E): T1 sequence (Q8NB16 2-471 D107A/E111A) with A106D, A110E, G329E

MLKL [4] = target: T4, MLKL (Homo sapiens, UniProt Q8NB16, K157A); experiment: thermal shift assay with ATP titration
T4 construct: full-length hMLKL(2–471)
T4 sequence (Q8NB16 2-471 K157A): T1 sequence (Q8NB16 2-471 D107A/E111A) with A106D, A110E, K156A

MLKL [5] = target: T5, MLKL (Homo sapiens, UniProt Q8NB16, S358E/T357E); experiment: thermal shift assay with ATP titration
T5 construct: full-length hMLKL(2–471)
T5 sequence (Q8NB16 2-471 T357E/S358E): T1 sequence (Q8NB16 2-471 D107A/E111A) with A106D, A110E, T356E, S357E

MLKL [6] = target: T6, MLKL (Homo sapiens, UniProt Q8NB16, E258K); experiment: thermal shift assay with ATP titration
T6 construct: full-length hMLKL(2–471)
T6 sequence (Q8NB16 2-471 E258K): T1 sequence (Q8NB16 2-471 D107A/E111A) with A106D, A110E, E257K

MLKL [7] = target: T7, MLKL (Homo sapiens, UniProt Q8NB16, E351K); experiment: thermal shift assay with ATP titration; HDX-MS protection around the ATP pocket
T7 construct: full-length hMLKL(2–471)
T7 sequence (Q8NB16 2-471 E351K): T1 sequence (Q8NB16 2-471 D107A/E111A) with A106D, A110E, E350K

Nc1ncnc2c1ncn2[C@@H]1O[C@H](COP(=O)(O)OP(=O)(O)OP(=O)(O)O)[C@@H](O)[C@H]1O [ATP]
Kd (MLKL [1]): 23 ± 2 µM | Kd (MLKL [2]): 36 ± 4 µM | Kd (MLKL [3]): 28 ± 6 µM | Kd (MLKL [4]): 164 ± 31 µM | Kd (MLKL [5]): 56 ± 8 µM | Kd (MLKL [6]): 24 ± 2 µM | Kd (MLKL [7]): 26 ± 6 µM

— PMC6013482, “Conformational switching of the pseudokinase domain promotes human MLKL tetramerization and cell death by necroptosis” (Nature Communications, 2018)
